Assay results from ChEMBL document CHEMBL5236640, “SAR study of 1,2-benzisothiazole dioxide compounds that agonize HIF-2 stabilization and EPO production” (Bioorg Med Chem, 2023).
The source made the active and inactive calls. No cut-off for these calls is given here.

Tests used:
[1] = molecular target: Endothelial PAS domain-containing protein 1 (Homo sapiens) (UniProt Q99814); assay: Synergistic agonist activity at human HIF-2alpha expressed in human Hep3B cells assessed as induction of EPO transcription at 5 uM pretreated with FG4592 followed by compound addition and measured after 12 hrs by qRT-PCR analysis; assay type: cell-based; details: filed as agonist
[2] = molecular target: Aryl hydrocarbon receptor nuclear translocator/Endothelial PAS domain-containing protein 1 (Homo sapiens) (UniProt P27540+Q99814); details: filed as agonist, dose 10.0 µM
[3] = molecular target: Endothelial PAS domain-containing protein 1 (Homo sapiens) (UniProt Q99814); assay: Agonist activity at human HIF-2alpha expressed in human 786-0 cells assessed as increase in NDRG1 transcription level at 20 uM incubated for 24 hrs by RT-PCR analysis relative to control; assay type: cell-based; details: filed as agonist
[4] = molecular target: Endothelial PAS domain-containing protein 1 (Homo sapiens) (UniProt Q99814); assay: Agonist activity at human HIF-2alpha expressed in human 786-0 cells assessed as increase in VEGFA transcription level at 2 uM incubated for 24 hrs by RT-PCR analysis relative to control; assay type: cell-based; details: filed as agonist
[5] = molecular target: Endothelial PAS domain-containing protein 1 (Homo sapiens) (UniProt Q99814); assay: Agonist activity at human HIF-2alpha expressed in human 786-0 cells assessed as increase in VEGFA transcription level at 0.2 uM incubated for 24 hrs by RT-PCR analysis relative to control; assay type: cell-based; details: filed as agonist
[6] = molecular target: Endothelial PAS domain-containing protein 1 (Homo sapiens) (UniProt Q99814); assay: Agonist activity at human HIF-2alpha expressed in human 786-0 cells assessed as increase in GLUT1 transcription level at 20 uM incubated for 24 hrs by RT-PCR analysis relative to control; assay type: cell-based; details: filed as agonist
[7] = molecular target: Endothelial PAS domain-containing protein 1 (Homo sapiens) (UniProt Q99814); assay: Agonist activity at human HIF-2alpha expressed in human 786-0 cells assessed as increase in NDRG1 transcription level at 0.2 uM incubated for 24 hrs by RT-PCR analysis relative to control; assay type: cell-based; details: filed as agonist
[8] = molecular target: Endothelial PAS domain-containing protein 1 (Homo sapiens) (UniProt Q99814); assay: Agonist activity at human HIF-2alpha expressed in human 786-0 cells assessed as increase in PGK1 transcription level at 20 uM incubated for 24 hrs by RT-PCR analysis relative to control; assay type: cell-based; details: filed as agonist
[9] = molecular target: Endothelial PAS domain-containing protein 1 (Homo sapiens) (UniProt Q99814); assay: Agonist activity at human HIF-2alpha expressed in human 786-0 cells assessed as increase in VEGFA transcription level at 20 uM incubated for 24 hrs by RT-PCR analysis relative to control; assay type: cell-based; details: filed as agonist
[10] = molecular target: Endothelial PAS domain-containing protein 1 (Homo sapiens) (UniProt Q99814); assay: Agonist activity at human HIF-2alpha expressed in human 786-0 cells assessed as increase in NDRG1 transcription level at 2 uM incubated for 24 hrs by RT-PCR analysis relative to control; assay type: cell-based; details: filed as agonist

Sequence of Aryl hydrocarbon receptor nuclear translocator/Endothelial PAS domain-containing protein 1 (Homo sapiens) (P27540 2-789 limits assumed): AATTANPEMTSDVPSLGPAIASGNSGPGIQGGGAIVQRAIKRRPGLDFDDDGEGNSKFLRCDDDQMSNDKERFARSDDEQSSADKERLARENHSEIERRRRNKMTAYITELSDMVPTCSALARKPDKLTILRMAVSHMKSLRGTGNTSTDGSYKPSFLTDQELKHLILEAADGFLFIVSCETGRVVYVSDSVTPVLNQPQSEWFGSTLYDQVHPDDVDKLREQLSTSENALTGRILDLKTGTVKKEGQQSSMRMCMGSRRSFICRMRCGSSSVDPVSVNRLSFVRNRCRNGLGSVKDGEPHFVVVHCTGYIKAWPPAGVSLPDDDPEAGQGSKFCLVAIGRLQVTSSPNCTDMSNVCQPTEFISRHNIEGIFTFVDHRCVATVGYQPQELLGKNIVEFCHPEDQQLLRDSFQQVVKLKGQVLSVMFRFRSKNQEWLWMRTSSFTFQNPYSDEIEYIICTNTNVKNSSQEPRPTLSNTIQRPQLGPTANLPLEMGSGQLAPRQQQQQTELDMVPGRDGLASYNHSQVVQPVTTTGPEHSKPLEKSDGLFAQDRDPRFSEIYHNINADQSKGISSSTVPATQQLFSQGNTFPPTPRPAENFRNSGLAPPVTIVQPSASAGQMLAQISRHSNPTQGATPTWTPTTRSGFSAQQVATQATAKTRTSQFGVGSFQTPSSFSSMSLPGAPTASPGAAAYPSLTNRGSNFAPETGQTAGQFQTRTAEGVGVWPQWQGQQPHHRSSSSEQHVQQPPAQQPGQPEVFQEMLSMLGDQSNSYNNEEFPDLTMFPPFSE
Sequence of Aryl hydrocarbon receptor nuclear translocator/Endothelial PAS domain-containing protein 1 (Homo sapiens) (Q99814 whole entry partner, the tested form may be a part): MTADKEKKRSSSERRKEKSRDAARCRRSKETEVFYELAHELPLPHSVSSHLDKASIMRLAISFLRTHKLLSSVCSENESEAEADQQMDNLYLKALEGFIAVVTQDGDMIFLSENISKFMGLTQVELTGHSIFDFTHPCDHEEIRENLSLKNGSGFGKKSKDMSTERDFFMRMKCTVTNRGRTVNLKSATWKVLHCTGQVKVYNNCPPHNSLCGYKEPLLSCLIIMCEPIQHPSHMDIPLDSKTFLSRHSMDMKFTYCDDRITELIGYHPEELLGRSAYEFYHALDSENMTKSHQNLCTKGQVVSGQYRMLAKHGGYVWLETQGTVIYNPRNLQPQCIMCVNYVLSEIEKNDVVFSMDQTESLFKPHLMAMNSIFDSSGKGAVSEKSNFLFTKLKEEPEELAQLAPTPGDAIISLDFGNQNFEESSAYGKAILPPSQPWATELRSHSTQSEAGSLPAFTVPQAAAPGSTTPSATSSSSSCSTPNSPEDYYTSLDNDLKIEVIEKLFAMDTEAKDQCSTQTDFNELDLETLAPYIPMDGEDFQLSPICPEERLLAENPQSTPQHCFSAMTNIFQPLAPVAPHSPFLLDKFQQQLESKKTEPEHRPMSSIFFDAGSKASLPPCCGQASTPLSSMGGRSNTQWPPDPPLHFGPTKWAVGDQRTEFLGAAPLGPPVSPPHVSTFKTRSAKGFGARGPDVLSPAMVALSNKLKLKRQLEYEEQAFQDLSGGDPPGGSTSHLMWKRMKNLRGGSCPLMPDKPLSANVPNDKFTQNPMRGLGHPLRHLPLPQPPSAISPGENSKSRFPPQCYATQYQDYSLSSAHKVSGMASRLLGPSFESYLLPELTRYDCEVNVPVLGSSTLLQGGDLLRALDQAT
Sequence of Endothelial PAS domain-containing protein 1 (Homo sapiens) (Q99814 whole entry, the tested form may be a part): as the sequence (Q99814 whole entry partner, the tested form may be a part) above

`O=S1(=O)N=C(Nc2ccc(F)c(F)c2)c2ccccc21` was tested, and the Activity [1] was “Active” and the ΔTm [2] was 0.29 °C.
`O=S1(=O)N=C(Nc2ccccc2F)c2ccccc21` gave a ΔTm [2] of 0.22 °C.
`O=S1(=O)N=C(Nc2cc(C(F)(F)F)cc(C(F)(F)F)c2)c2cc(Br)ccc21` was tested, and the Activity [1] was “Active”, the Activity [3] was 432% and the Activity [4] was 116%. For the same compound, the Activity [5] was 93.3%, the Activity [6] was 218% and the Activity [7] was 88%. The Activity [8] was 117%, the ΔTm [2] was 0.87 °C and the Activity [9] was 265%. For the same compound, the Activity [10] was 110%.
With `O=S1(=O)N=C(Nc2cc(C(F)(F)F)cc(C(F)(F)F)c2)c2ccccc21` the Activity [1] was “Active”, the Activity [3] was 272% and the Activity [6] was 132%. For the same compound, the Activity [8] was 55%, the ΔTm [2] was 0.89 °C and the Activity [9] was 161%.
For `O=S1(=O)N=C(Nc2cccc(F)c2)c2ccccc21`, the ΔTm [2] was 0.17 °C.
`COc1ccc2c(c1)C(Nc1cc(C(F)(F)F)cc(C(F)(F)F)c1)=NS2(=O)=O` showed a ΔTm [2] of -0.29 °C.
`[O-][s+]1cc(Nc2cc(C(F)(F)F)cc(C(F)(F)F)c2)c2ccccc21` (stereo unspecified) gave an Activity [3] of 87.4%, an Activity [6] of 108% and an Activity [8] of 127%. For the same compound, the ΔTm [2] was 0.17 °C and the Activity [9] was 111%.
Compound `O=S1(=O)N=C(Nc2cc(F)cc(F)c2)c2ccc(Br)cc21` has a ΔTm [2] of -0.06 °C.
With `N#Cc1ccc2c(c1)C(Nc1cc(C(F)(F)F)cc(C(F)(F)F)c1)=NS2(=O)=O` the Activity [1] was “Active” and the ΔTm [2] was 0.83 °C.
For `O=S1(=O)N=C(Nc2cc(F)cc(F)c2)c2cc(Br)ccc21`, the Activity [1] was “Active” and the ΔTm [2] was 0.37 °C.
`O=S1(=O)N=C(Nc2cc(C(F)(F)F)cc(C(F)(F)F)c2)c2cc(Cl)ccc21` gave a ΔTm [2] of -0.1 °C.
With `O=C(O)c1cc(NC2=NS(=O)(=O)c3ccccc32)cc(C(=O)O)c1` the Activity [1] was “Active” and the ΔTm [2] was 0.74 °C.
`CS(=O)(=O)c1cc(NC2=NS(=O)(=O)c3ccccc32)cc(S(C)(=O)=O)c1` gave a ΔTm [2] of 0 °C.
`O=S1(=O)N=C(Nc2ccc(F)cc2)c2ccccc21` gave a ΔTm [2] of 0.3 °C.
`O=S1(=O)C=C(Nc2cc(C(F)(F)F)cc(C(F)(F)F)c2)c2ccccc21` was tested, and the Activity [1] was “Active” and the ΔTm [2] was 0.44 °C.
In the case of `O=S1(=O)N=C(Nc2cccc(C(F)(F)F)c2)c2ccccc21`, the Activity [1] is reported as “Active”, the Activity [3] is reported as 89.4% and the Activity [6] is reported as 80.9%. It also gave an Activity [8] of 102%, a ΔTm [2] of 0.74 °C and an Activity [9] of 77.9%.
For `FC(F)(F)c1cc(Nc2csc3ccccc23)cc(C(F)(F)F)c1`, the Activity [3] was 92.1%, the Activity [6] was 87.4% and the Activity [8] was 62%. It also gave a ΔTm [2] of 0.1 °C and an Activity [9] of 102%.
`O=S1(=O)N=C(Nc2ccccc2)c2ccccc21` gave an Activity [3] of 126%, an Activity [6] of 96.3% and an Activity [8] of 90%. The ΔTm [2] was 0.02 °C and the Activity [9] was 140%.
Compound `CC(=O)c1cccc(NC2=NS(=O)(=O)c3ccccc32)c1` has a ΔTm [2] of -0.13 °C.
`O=S1(=O)N=C(Nc2cccc(F)c2F)c2ccccc21` showed a ΔTm [2] of -0.15 °C.
`COC(=O)c1cc(NC2=NS(=O)(=O)c3ccccc32)cc(C(=O)OC)c1` gave a ΔTm [2] of 0.02 °C.
`O=S1(=O)N=C(Nc2cc(F)ccc2F)c2ccccc21` gave a ΔTm [2] of 0.07 °C.
In the case of `COc1cc(NC2=NS(=O)(=O)c3ccccc32)cc(OC)c1`, the Activity [1] is reported as “Active” and the ΔTm [2] is reported as 0 °C.
For `CN(C1=NS(=O)(=O)c2ccccc21)c1cc(C(F)(F)F)cc(C(F)(F)F)c1`, the Activity [1] was “Active”, the Activity [3] was 96.6% and the Activity [8] was 97%. For the same compound, the ΔTm [2] was 0.44 °C and the Activity [9] was 124%.
With `O=S1(=O)N=C(Oc2cc(C(F)(F)F)cc(C(F)(F)F)c2)c2ccccc21` the Activity [1] was “Active”, the Activity [3] was 97.6% and the Activity [8] was 124%. The ΔTm [2] was 0.07 °C and the Activity [9] was 105%.
`O=S1(=O)N=C(Nc2cc(F)cc(F)c2)c2ccccc21` was tested, and the Activity [1] was “Active”, the Activity [3] was 214% and the Activity [6] was 185%. For the same compound, the Activity [8] was 72%, the ΔTm [2] was 0.55 °C and the Activity [9] was 146%.
For `O=S1(=O)N=C(Nc2ccc(F)cc2F)c2ccccc21`, the ΔTm [2] was 0.14 °C.
`O=S1(=O)N=C(Nc2cc(C(F)(F)F)cc(C(F)(F)F)c2)c2ccc(Br)cc21` was tested, and the Activity [1] was “Active” and the ΔTm [2] was 0.07 °C.
For `N#Cc1cc(NC2=NS(=O)(=O)c3ccccc32)cc(C(F)(F)F)c1`, the Activity [1] was “Active” and the ΔTm [2] was 0.96 °C.
With `O=S1(=O)N=C(Nc2ccc(C(F)(F)F)cc2)c2ccccc21` the Activity [1] was “Active”, the Activity [3] was 95.1% and the Activity [6] was 76.8%. The Activity [8] was 90%, the ΔTm [2] was 0.44 °C and the Activity [9] was 85.7%.
With `COC(=O)c1cc(C#N)cc(NC2=NS(=O)(=O)c3ccccc32)c1` the Activity [1] was “Active” and the ΔTm [2] was 1.28 °C.
For `N#Cc1cccc(NC2=NS(=O)(=O)c3ccccc32)c1`, the ΔTm [2] was 0.07 °C.
With `O=S1(=O)N=C(Nc2cc(C(F)(F)F)cc(C(F)(F)F)c2)c2cc(F)ccc21` the ΔTm [2] was -0.14 °C.
